Source: patent publication US8178506B2, “Oligomeric compounds and compositions for use in modulation of small non-coding RNAs” (Regulus Therapeutics Inc., priority 2003, dated 2012)
Several values for one entry are separate records, joined by “and”; a condition that tells them apart may be missing. Identical values can stand only once. In the oligonucleotide strings, read from the 5' end, every base follows the letter of its sugar. An asterisk marks phosphorothioate; unmarked linkages are phosphodiester. Other units and linkages are bracketed, terminal groups are in braces. A string of capitals states the bases alone. e = 2'-O-(2-methoxyethyl) (MOE); [5mC] = 5-methylcytosine; d = 2'-deoxy (DNA)

Tested on: HeLa cells
Experiment: Cell cycle assay in HeLa cells
Format: cell-based, human
Settings: HeLa cells
[1] = 150 nM oligomeric compound, 24 hours, relative to untreated control (UTC = 100)
[2] = 150 nM oligomeric compound, 48 hours after treatment, relative to untreated control (UTC=100)
[3] = 25 nM, 48 hours, percentage of cells in phase, average of replicates
[4] = 50 nM, 48 hours, percentage of cells in phase, average of replicates
[5] = 100 nM, 48 hours, percentage of cells in phase, average of replicates
[6] = 150 nM, 48 hours, relative to untreated control
[7] = 150 nM, 48 hours, percentage of cells in phase, average of replicates

## 327944 (antisense eA*eA*eA*eG*eT*eG*eT*e[5mC]*eA*eG*eA*eT*eA*e[5mC]*eG*eG*eT*eG*eT*eG*eG) [compound 327944]
[1]
  % cells aneuploid: 50%
  % cells in cell cycle phase G1: 85%
  % cells in cell cycle phase G2/M: 111%
  % cells in cell cycle phase S: 110%
  % cells in cell cycle phase subG1: 165%
[2]
  % cells in cell cycle phase: G1: 75%
  % cells in cell cycle phase: G2/M: 144%
  % cells in cell cycle phase: S: 129%
  % cells in cell cycle phase: aneuploid: 78%
  % cells in cell cycle phase: subG1: 490%

## 327946 (antisense eA*eG*eG*e[5mC]*eG*eA*eA*eG*eG*eA*eT*eG*eA*e[5mC]*eA*eA*eA*eG*eG*eG*eA*eA) [compound 327946]
[1]
  % cells aneuploid: 43%
  % cells in cell cycle phase G1: 90%
  % cells in cell cycle phase G2/M: 156%
  % cells in cell cycle phase S: 84%
  % cells in cell cycle phase subG1: 225%
[2]
  % cells in cell cycle phase: G1: 72%
  % cells in cell cycle phase: G2/M: 129%
  % cells in cell cycle phase: S: 150%
  % cells in cell cycle phase: aneuploid: 76%
  % cells in cell cycle phase: subG1: 431%

## 327949 (antisense e[5mC]*eA*e[5mC]*eA*eA*eA*eT*eT*e[5mC]*eG*eG*eA*eT*e[5mC]*eT*eA*e[5mC]*eA*eG*eG*eG*eT*eA) [compound 327949]
[1]
  % cells aneuploid: 68%
  % cells in cell cycle phase G1: 82%
  % cells in cell cycle phase G2/M: 172%
  % cells in cell cycle phase S: 84%
  % cells in cell cycle phase subG1: 194%
[2]
  % cells in cell cycle phase: G1: 66%
  % cells in cell cycle phase: G2/M: 138%
  % cells in cell cycle phase: S: 157%
  % cells in cell cycle phase: aneuploid: 71%
  % cells in cell cycle phase: subG1: 773%

## 327957 (antisense e[5mC]*eA*e[5mC]*eA*eA*eG*eT*eT*e[5mC]*eG*eG*eA*eT*e[5mC]*eT*eA*e[5mC]*eG*eG*eG*eT*eT) [compound 327957]
[1]
  % cells aneuploid: 66%
  % cells in cell cycle phase G1: 91%
  % cells in cell cycle phase G2/M: 145%
  % cells in cell cycle phase S: 88%
  % cells in cell cycle phase subG1: 197%
[2]
  % cells in cell cycle phase: G1: 65%
  % cells in cell cycle phase: G2/M: 127%
  % cells in cell cycle phase: S: 169%
  % cells in cell cycle phase: aneuploid: 85%
  % cells in cell cycle phase: subG1: 864%

## 328403 (antisense eA*eG*eG*e[5mC]*e[5mC]*dT*dA*dT*dT*d[5mC]*d[5mC]*dT*dG*dT*dA*eG*e[5mC]*eA*eA*eA) [compound 328403]
25 nM, 48 hours
  % cells in cell cycle phase: G2/M: 18%
[3]
  % cells in cell cycle phase: G1: 58%
  % cells in cell cycle phase: S: 24%
  % cells in cell cycle phase: aneuploid: 13%
  % cells in cell cycle phase: subG1: 1.5%
50 nM, 48 hours
  % cells in cell cycle phase: G2/M: 20%
[4]
  % cells in cell cycle phase: G1: 53%
  % cells in cell cycle phase: S: 27%
  % cells in cell cycle phase: aneuploid: 14%
  % cells in cell cycle phase: subG1: 1.1%
100 nM, 48 hours
  % cells in cell cycle phase: G2/M: 23%
[5]
  % cells in cell cycle phase: G1: 48%
  % cells in cell cycle phase: S: 29%
  % cells in cell cycle phase: aneuploid: 11%
  % cells in cell cycle phase: subG1: 3.5%
[1]
  % cells aneuploid: 53% and 82%
  % cells in cell cycle phase G1: 70% and 86%
  % cells in cell cycle phase G2/M: 197% and 179%
  % cells in cell cycle phase S: 85% and 75%
  % cells in cell cycle phase subG1: 284% and 189%
[2]
  % cells in cell cycle phase: G1: 61% and 82%
  % cells in cell cycle phase: G2/M: 131% and 106%
  % cells in cell cycle phase: S: 177% and 148%
  % cells in cell cycle phase: aneuploid: 85% and 80%
150 nM, 48 hours
  % cells in cell cycle phase: G2/M: 24%
[6]
  % cells in cell cycle phase G1: 125%
  % cells in cell cycle phase G2/M: 80%
  % cells in cell cycle phase S: 89%
  % cells in cell cycle phase aneuploid: 175%
  % cells in cell cycle phase subG1: 89%
[7]
  % cells in cell cycle phase: G1: 37%
  % cells in cell cycle phase: S: 40%
  % cells in cell cycle phase: aneuploid: 13%
  % cells in cell cycle phase: subG1: 8.2%
